One data set is described as follows: Solubility in water. Type of data set: physicochemical.
Data set [1] addresses T1, plasmin (Homo sapiens, UniProt P00747).
T1 construct: from tissue
Kind of data set: Anti-plasmin: 50% inhibition of plasmin in vitro (euglobulin/streptokinase/fibrinogen system). Type of data set: biochemical. How it is done: (1) Plasmin: A system comprising 0.1 ml of human euglobulin (10 fold dilution), 0.1 ml of streptokinase (2000 unit/ml), 0.4 ml of fibrinogen (4% solution), 0.3 ml of a 0.1 M borate saline buffer solution (pH 7.4) and 0.1 ml of a solution of each of the following compounds of formula (I) at various concentrations was allowed to react at a temperature of 37° C. for 30 minutes.

The next data set concerns the target T2, trypsin (Bos taurus, UniProt P00760).
T2 sequence (P00760 24-246): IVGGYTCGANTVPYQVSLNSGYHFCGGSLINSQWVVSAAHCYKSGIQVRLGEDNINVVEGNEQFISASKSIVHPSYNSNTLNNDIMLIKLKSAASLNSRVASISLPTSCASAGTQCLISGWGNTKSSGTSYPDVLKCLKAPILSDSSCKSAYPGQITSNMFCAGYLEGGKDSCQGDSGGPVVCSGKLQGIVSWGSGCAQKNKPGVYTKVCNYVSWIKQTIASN
Kind of data set: Anti-trypsin: 50% inhibition of hydrolysis of p-tosylarginine methyl ester by trypsin in vitro. Type of data set: biochemical. As to conditions: 37° C., 30 minutes, Tris-HCl buffer pH 8.5, p-tosylarginine methyl ester substrate; read-out: 50% Inhibition Concentration, Anti-Trypsin. How it is done: The inhibitory activities of representative compounds of formula (I) against plasmin and trypsin in vitro were determined in a manner similar to the method described by M. Muramatsu et al (J. Biochemistry 57, 402 (1965)) for plasmin, and the method described by M. Muramatsu et al (J. Biochemistry 58, 214 (1964)) for trypsin, as follows:
(2) Trypsin: A system comprising 0.4 ml of trypsin (1.25 μg/ml), 0.5 ml of p-tosylarginine methyl ester (20 mM) in Tris-HCl buffer (pH 8.5) and 0.1 ml of a solution of each of the following compounds of formula (I) at various concentrations was reacted at a temperature of 37° C. for 30 minutes. The concentration of each of the test compounds at which the activity of trypsin 0.5 μg to hydrolyze p-tosylarginine methyl ester was 50% inhibited is shown in Table 1 below. As a control, Trasylol (tradename of a peptide extracted from bovine organs having an inhibitory activity against a proteolytic enzyme and manufactured by Bayer A.G.) was used.

The next data set has as its system rat pancreatitis. Kind of data set: Effect on rat pancreatitis induced by sodium taurocholate and trypsin (mortality). In kind it is in vivo, rat (male Wistar). Conditions: intravenous injection. The protocol: Male Wistar rats weighing 200 to 250 g were laparotomized under anesthetization with pentobarbital and to the thus laparotomized rats 0.1 ml of a mixture of sodium taurocholate and trypsin was administered through the pancreatic duct to induce pancreatitis.
Mortality rates for up to 48 hrs. after the administration were compared between the groups in which the compounds of the present invention were injected intravenously and the control groups in which a physiological salt solution was injected intravenously.

The test system of data set [2] is plasmin. Briefly: Inhibitory effects for fibrinolysis of plasmin (fibrinolytic activity in rabbits after human serum and streptokinase). Conditions: 5 mg/kg iv. In kind it is in vivo, rabbit. The protocol: Inhibitory effects for fibrinolysis of plasmin were examined according to the method of S. Okamoto and U. Okamoto (Keio Journal of Medicine 11 (No. 3) 105 (1962)).
10 ml of human serum was administered to male rabbits weighing 2.0 to 2.5 Kg through the femoral vein, and after 2 minutes 50,000 units of streptokinase was administered to the rabbits intraveneously to activate plasmin.
Each of the test compounds of the present invention was administered to the rabbits at a dosage level of 5 mg/Kg 5 minutes after the administration of streptokinase. After 15, 30, 60, 90, 120 and 180 minutes, 0.5 ml of blood was drawn from the rabbits, and the blood then incubated at 37° C. for 3 hrs. to coagulate the blood. The thus formed blood clots were washed with water and dried. The dry weight of the blood clots was evaluated and compared with the normal value (the value obtained prior to administration of the human serum).
The values in Table 2 were calculated according to the following equation: [formula]

Where [3] appears, read: 37° C., 30 minutes, borate saline buffer pH 7.4, human euglobulin, streptokinase, fibrinogen, read-out: 50% Inhibition Concentration, Anti-Plasmin.

SMILES strings stand for the structures. ≈ marks a conversion by molar mass, not a printed value. Where two headings read alike, the source gives them in different places.

Usually solubility stands for the dissolved amount per volume that the medium holds. A low value points to little dissolved substance.

T1 sequence (P00747 581-810 limits assumed): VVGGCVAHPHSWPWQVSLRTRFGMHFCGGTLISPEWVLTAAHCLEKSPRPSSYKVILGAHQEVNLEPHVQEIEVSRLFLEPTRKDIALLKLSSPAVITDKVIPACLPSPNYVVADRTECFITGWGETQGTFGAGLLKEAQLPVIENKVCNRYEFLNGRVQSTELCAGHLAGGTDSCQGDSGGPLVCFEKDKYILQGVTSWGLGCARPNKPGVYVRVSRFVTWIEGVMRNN
T1 sequence (P00747 97-580 partner limits assumed): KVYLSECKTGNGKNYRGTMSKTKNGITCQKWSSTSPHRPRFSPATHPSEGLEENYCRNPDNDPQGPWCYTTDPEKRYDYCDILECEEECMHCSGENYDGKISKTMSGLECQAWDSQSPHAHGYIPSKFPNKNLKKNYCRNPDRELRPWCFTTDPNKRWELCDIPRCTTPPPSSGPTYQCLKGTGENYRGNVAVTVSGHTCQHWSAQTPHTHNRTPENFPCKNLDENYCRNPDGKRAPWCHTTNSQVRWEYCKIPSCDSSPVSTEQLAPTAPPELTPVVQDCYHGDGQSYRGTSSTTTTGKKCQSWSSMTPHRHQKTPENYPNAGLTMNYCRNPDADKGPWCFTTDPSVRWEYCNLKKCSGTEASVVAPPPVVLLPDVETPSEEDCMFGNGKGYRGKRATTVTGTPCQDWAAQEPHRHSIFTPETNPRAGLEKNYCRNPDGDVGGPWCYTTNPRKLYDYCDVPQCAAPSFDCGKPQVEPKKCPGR

With `CN(C)C(=O)COC(=O)CCc1ccc(OC(=O)c2ccc(NC(=N)N)cc2)cc1` [compound 7], in “Solubility in water”, the solubility is 10 mM (≈ 4120 µg/mL). The values for the IC50 on plasmin [1] (setting [3]) and on trypsin were 120 nM and 0.56 nM, respectively.
On to `CN(C)C(=O)COC(=O)Cc1ccc(OC(=O)c2ccc(NC(=N)N)cc2)cc1` [Compound No.5], for which the “Mortality for 48 hrs.” value in the data set with rat pancreatitis (1 mg/kg) was 64.2%; with rat pancreatitis (2.5 mg/kg), 50.0%; in the data set on rat pancreatitis (5.0 mg/kg) it was 44.4%. The concentration in solution in “Solubility in water” (solubility) was 100 mM (≈ 39800 µg/mL). In addition, the “Fibrinolytic Activity in Rabbits” value in the data set with plasmin [2] (15 min. after) is recorded as 0%; with plasmin [2] (30 min. after) it was 0%; with plasmin [2] (60 min. after), 4%; in the data set on plasmin [2] (90 min. after), 20%; in the data set on plasmin [2] (120 min. after), 46%; in the data set with plasmin [2] (180 min. after), 52%. Further, the IC50 came to 38 nM on plasmin [1] and 8.5 nM on trypsin.
In the data set “Solubility in water”, `CCCN(CCC)C(=O)COC(=O)c1ccc(OC(=O)c2ccc(NC(=N)N)cc2)cc1` [compound 4] returned a solubility of 10 mM (≈ 4410 µg/mL). For the same compound, the IC50 on plasmin [1] (setting [3]) was found to be 0.53 nM; at trypsin it was 1.4 nM.
On the same counts, the results for `CNC(=O)COC(=O)Cc1ccc(OC(=O)c2ccc(NC(=N)N)cc2)cc1` [compound 8] are 10 mM (≈ 3840 µg/mL), 10 nM and 12 nM.
On the same counts, the results for `N=C(N)Nc1ccc(C(=O)Oc2ccc(C(=O)OCC(N)=O)cc2)cc1` [compound 1] are 1 mM (≈ 356 µg/mL), 15 nM and 3 nM.
The corresponding values for `CN(C)C(=O)COC(=O)c1ccc(OC(=O)c2ccc(NC(=N)N)cc2)cc1` [compound 3] are more than 20 mM, 2 nM and 2.7 nM.
In “Solubility in water”, `CN(C)C(=O)COC(=O)C=Cc1ccc(OC(=O)c2ccc(NC(=N)N)cc2)cc1` [compound 6] showed a solubility of 10 mM (≈ 4100 µg/mL). Besides, the figures for the IC50 at plasmin [1] (setting [3]) and on trypsin were 19.5 nM and 0.09 nM, respectively.
Regarding `CNC(=O)COC(=O)c1ccc(OC(=O)c2ccc(NC(=N)N)cc2)cc1` [Compound No.2], the “Mortality for 48 hrs.” value in the data set with rat pancreatitis (1 mg/kg) is listed as 85.7%; in the data set with rat pancreatitis (2.5 mg/kg), 42.8%; in the data set on rat pancreatitis (5.0 mg/kg) it was 30%. The compound further displayed a solubility in “Solubility in water” of 50 mM (≈ 18500 µg/mL). Further, the “Fibrinolytic Activity in Rabbits” value stood at 0% in the data set with plasmin [2] (15 min. after); 0% in the data set on plasmin [2] (30 min. after); 2% with plasmin [2] (60 min. after); 2% with plasmin [2] (90 min. after); 12% with plasmin [2] (120 min. after); 31% in the data set on plasmin [2] (180 min. after). Further, the IC50 at plasmin [1] (setting [3]) came to 1.6 nM; on trypsin it was 3.5 nM.
